Results published in PMC7413254 (Nature Communications, 2020).

How the values were obtained:
Assay type in all cases: cell-based
PfCRT^Ecu1110 [1] = molecular target: T1, PfCRT^Ecu1110 (Plasmodium falciparum, UniProt Q9N623, A220S/I356L/K76T/N326D); test: [3H]CQ uptake into Xenopus oocytes, cis-inhibition by unlabelled solute; conditions: for PfCRT-mediated [3H]CQ transport, cis-inhibition (% PfCRTEcu1110 control): PfCRTEcu1110 oocytes, background [3H]CQ accumulation subtracted, normalised to oocyte type control; for [3H]CQ transport (% PfCRTEcu1110 control), cis-inhibition, PfCRTEcu1110: PfCRT-mediated component (background subtracted), sheet title says normalised to PfCRTDd2 control, mean ± SEM, SEM
T1 sequence (Q9N623 whole entry A220S/I356L/K76T/N326D): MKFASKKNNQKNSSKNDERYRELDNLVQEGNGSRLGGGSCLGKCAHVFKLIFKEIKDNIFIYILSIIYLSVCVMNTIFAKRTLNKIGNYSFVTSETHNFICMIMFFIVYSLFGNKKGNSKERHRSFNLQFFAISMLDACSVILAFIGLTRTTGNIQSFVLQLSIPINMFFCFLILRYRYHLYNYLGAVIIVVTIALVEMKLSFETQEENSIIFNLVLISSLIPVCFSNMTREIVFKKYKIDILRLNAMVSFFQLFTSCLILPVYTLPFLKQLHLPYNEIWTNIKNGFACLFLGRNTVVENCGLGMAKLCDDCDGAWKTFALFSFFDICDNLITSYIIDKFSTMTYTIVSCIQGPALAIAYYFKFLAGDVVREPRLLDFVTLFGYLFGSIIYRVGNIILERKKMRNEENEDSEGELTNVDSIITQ
Outline: (§1)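 Assay buffer ND96 (10 mM MES, 10 mM Tris-base) held at pH 5.5 to mimic vacuole lumen; uptake measured inward from this acidic medium over 1.5 h at 27.5 °C.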

PfCRT^Dd2 [2] = molecular target: T2, PfCRT^Dd2 (Plasmodium falciparum, UniProt Q9N623, A220S/I356T/K76T/M74I/N326S/N75E/Q271E/R371I); test: as above; conditions: PfCRTDd2 oocytes, background [3H]CQ accumulation subtracted, normalised to oocyte type control
T2 sequence (Q9N623 whole entry A220S/I356T/K76T/M74I/N326S/N75E/Q271E/R371I): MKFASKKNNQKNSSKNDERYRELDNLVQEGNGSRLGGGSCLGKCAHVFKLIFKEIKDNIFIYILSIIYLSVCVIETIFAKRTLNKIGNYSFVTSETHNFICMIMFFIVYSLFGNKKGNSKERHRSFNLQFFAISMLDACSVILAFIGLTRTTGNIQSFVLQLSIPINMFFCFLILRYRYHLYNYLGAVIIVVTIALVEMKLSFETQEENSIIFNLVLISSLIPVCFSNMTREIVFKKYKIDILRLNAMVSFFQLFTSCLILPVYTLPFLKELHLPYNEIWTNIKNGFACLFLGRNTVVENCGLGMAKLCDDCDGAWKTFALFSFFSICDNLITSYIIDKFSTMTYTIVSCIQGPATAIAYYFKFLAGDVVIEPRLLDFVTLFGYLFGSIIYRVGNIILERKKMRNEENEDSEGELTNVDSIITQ
Outline: as §1

PfCRT^3D7 = PfCRT^3D7 (Plasmodium falciparum, UniProt Q8IBZ9); test: cell-based; conditions: PfCRT3D7 oocytes, normalised to oocyte type control
Chain of PfCRT^3D7 (Q8IBZ9 59-398): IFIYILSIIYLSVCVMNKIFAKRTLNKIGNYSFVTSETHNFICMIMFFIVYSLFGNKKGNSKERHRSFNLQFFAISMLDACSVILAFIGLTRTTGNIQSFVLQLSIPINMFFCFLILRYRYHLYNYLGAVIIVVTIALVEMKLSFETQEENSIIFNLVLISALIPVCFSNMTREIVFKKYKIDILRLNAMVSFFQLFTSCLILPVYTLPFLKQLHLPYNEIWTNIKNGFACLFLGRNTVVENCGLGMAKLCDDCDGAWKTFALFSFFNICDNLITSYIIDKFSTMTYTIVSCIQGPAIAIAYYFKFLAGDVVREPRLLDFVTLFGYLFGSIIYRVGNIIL
Outline: (§2)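 Transport measured in Xenopus oocytes expressing the transporters, 1.5 h at 27.5 °C in ND96 pH 5.5 unless noted. For trans-stimulation, VF-6 injected in 25 nL ND96 at pH 5.0–7.0 or Na^+-free (choline) buffer; intracellular levels based on ~400 nL oocyte volume. Ten oocytes per treatment, ≥4 experiments.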

PfCRT^Ecu1110 [3] = molecular target: T1, PfCRT^Ecu1110; test: cell-based; conditions: for PfCRT-mediated [3H]CQ transport, trans-stimulation (% PfCRTEcu1110 control): PfCRTEcu1110 oocytes, normalised to oocyte type control; for [3H]CQ transport (% PfCRTDd2 control), trans-stimulation, PfCRTEcu1110: PfCRT-mediated component (background subtracted), sheet title says normalised to PfCRTDd2 control, mean ± SEM, SEM
Outline: as §2

PfCRT^Dd2 [4] = molecular target: T2, PfCRT^Dd2; test: cell-based; conditions: for PfCRT-mediated [3H]CQ transport, trans-stimulation (% PfCRTDd2 control): PfCRTDd2 oocytes, normalised to oocyte type control; for [3H]CQ transport (% PfCRTDd2 control), trans-stimulation, PfCRTDd2: PfCRT-mediated component (background subtracted), mean ± SEM, SEM
Outline: as §2

[5] = [test solute]i = 5 mM (intracellular)
[6] = [test solute]i = 45 mM (intracellular; 30 mM for some solutes due to solubility)
[7] = [test solute]i = 5 mM (injected)
[8] = [test solute]i = 45 mM (30 mM for some solutes due to solubility)

Substance | PfCRT-mediated [3H]CQ transport, cis-inhibition (% PfCRTEcu1110 control) (PfCRT^Ecu1110 [1]; [test solute] = 0.5 mM) | PfCRT-mediated [3H]CQ transport, cis-inhibition (% PfCRTEcu1110 control) (PfCRT^Ecu1110 [1]; [test solute] = 1 mM) | PfCRT-mediated [3H]CQ transport, cis-inhibition (% PfCRTEcu1110 control) (PfCRT^Ecu1110 [1]; [test solute] = 2 mM) | [3H]CQ transport (% PfCRTEcu1110 control), cis-inhibition, PfCRTEcu1110 (PfCRT^Ecu1110 [1]; [test solute] = 0.5 mM) [% PfCRTEcu1110 control] | [3H]CQ transport (% PfCRTEcu1110 control), cis-inhibition, PfCRTEcu1110 (PfCRT^Ecu1110 [1]; [test solute] = 1 mM) [% PfCRTEcu1110 control] | [3H]CQ transport (% PfCRTEcu1110 control), cis-inhibition, PfCRTEcu1110 (PfCRT^Ecu1110 [1]; [test solute] = 2 mM) [% PfCRTEcu1110 control] | PfCRT-mediated [3H]CQ transport, cis-inhibition (% PfCRTDd2 control) (PfCRT^Dd2 [2]; [test solute] = 0.5 mM) | PfCRT-mediated [3H]CQ transport, cis-inhibition (% PfCRTDd2 control) (PfCRT^Dd2 [2]; [test solute] = 1 mM) | PfCRT-mediated [3H]CQ transport, cis-inhibition (% PfCRTDd2 control) (PfCRT^Dd2 [2]; [test solute] = 2 mM) | PfCRT-mediated [3H]CQ transport, trans-stimulation (% PfCRT3D7 control) (PfCRT^3D7; [5]) | PfCRT-mediated [3H]CQ transport, trans-stimulation (% PfCRT3D7 control) (PfCRT^3D7; [6]) | PfCRT-mediated [3H]CQ transport, trans-stimulation (% PfCRTEcu1110 control) (PfCRT^Ecu1110 [3]; [5]) | PfCRT-mediated [3H]CQ transport, trans-stimulation (% PfCRTEcu1110 control) (PfCRT^Ecu1110 [3]; [6]) | [3H]CQ transport (% PfCRTDd2 control), trans-stimulation, PfCRTEcu1110 (PfCRT^Ecu1110 [3]; [7]) [% PfCRTEcu1110 control] | [3H]CQ transport (% PfCRTDd2 control), trans-stimulation, PfCRTEcu1110 (PfCRT^Ecu1110 [3]; [8]) [% PfCRTEcu1110 control] | PfCRT-mediated [3H]CQ transport, trans-stimulation (% PfCRTDd2 control) (PfCRT^Dd2 [4]; [5]) | PfCRT-mediated [3H]CQ transport, trans-stimulation (% PfCRTDd2 control) (PfCRT^Dd2 [4]; [6]) | [3H]CQ transport (% PfCRTDd2 control), trans-stimulation, PfCRTDd2 (PfCRT^Dd2 [4]; [7]) [% PfCRTDd2 control] | [3H]CQ transport (% PfCRTDd2 control), trans-stimulation, PfCRTDd2 (PfCRT^Dd2 [4]; [8]) [% PfCRTDd2 control]
PPVQA [PA-5] | 59 ± 2.1 | 41 ± 1.4 | 28 ± 0.5 | 19 ± 0.3 | 13 ± 0.5 | 9.0 ± 0.05 | 39 ± 1.1 | 31 ± 3.1 | 19 ± 1.2 | 133 ± 4.6 | 178 ± 5.2 | 91 ± 5.7 | 97 ± 4.4 | 28 ± 1.7 | 29 ± 1.4 | 100 ± 4.2 | 95 ± 5.6 | 100 ± 4.2 | 95 ± 5.6
SHCLLVT [ST-7] | 39 ± 1.1 | 31 ± 2.5 | 19 ± 1.4 | 12 ± 0.5 | 10 ± 0.1 | 6.0 ± 0.02 | 38 ± 1.0 | 27 ± 1.3 | 12 ± 0.1 | 140 ± 4.3 | 192 ± 4.6 | 130 ± 3.2 | 136 ± 4.3 | 39 ± 1.3 | 41 ± 2.2 | 97 ± 3.2 | 113 ± 2.0 | 97 ± 3.2 | 113 ± 2.0
TPPVQ [TQ-5] | 56 ± 3.1 | 49 ± 2.6 | 42 ± 2.4 |  | 15 ± 0.1 | 13 ± 0.1 | 50 ± 2.1 | 30 ± 2.1 | 15 ± 0.3 | 94 ± 3.5 | 96 ± 4.2 | 96 ± 3.5 | 96 ± 2.3 | 29 ± 1.6 | 30 ± 1.6 | 96 ± 3.2 | 97 ± 4.5 | 96 ± 3.2 | 97 ± 4.5
VDEVGG [VG-6] | 61 ± 3.5 | 51 ± 2.6 | 39 ± 1.4 |  | 16 ± 0.1 | 12 ± 0.02 | 55 ± 1.8 | 44 ± 2.7 | 38 ± 1.3 | 140 ± 4.4 | 190 ± 3.6 | 128 ± 4.2 | 139 ± 4.6 | 39 ± 1.5 | 42 ± 2.6 | 102 ± 4.7 | 112 ± 0.9 | 102 ± 4.7 | 112 ± 0.9
